Laboratory results taken from publication PMC10458312, “Xanthones with Potential Anti-Inflammatory and Anti-HIV Effects from the Stems and Leaves of Cratoxylum cochinchinense” (Molecules, 2023).
Read-outs that look alike come from different tables or passages of the source.

What was measured:
[1] = test system: NO production induced by lipopolysaccharide in mouse macrophage RAW 264.7 cells; test: Inhibition of NO production induced by lipopolysaccharide in RAW 264.7 cells (Griess reaction); format: cell-based; details: RAW264.7, LPS-induced RAW 264.7 cells, 24 h, mean ± SD of triplicate determinations, read-out: IC50 (50% inhibitory concentration on NO production)
HIV-1IIIB = test: Inhibition assay for the cytopathic effects of HIV-1 (syncytia formation) in C8166 cells; details: for TI (therapeutic index) = CC50/EC50: CC50 in C8166 / EC50 against HIV-1; for EC50: Human immunodeficiency virus 1, C8166, 72 h, read-out: EC50 (50% effective concentration), anti-HIV-1
Protocol: All isolated xanthones 1–12 were assessed for their anti-HIV reverse transcriptase (RT) effects according to the inhibition assay for the cytopathic activities of HIV-1 (EC50) as well as the cytotoxic activities assay against C8166 cell line (CC50) according to MTT methods.
All isolated xanthones 1–12 were assessed for their anti-HIV-1 reverse transcriptase (RT) effects in vitro on the basis of the inhibition assay for the cytopathic effects of HIV-1 (EC50), in light of the protocol which is described in detail in the Supplementary Material of our current article, in which AZT (3′-azido-3′-deoxythymidine) was adopted as the positive control. All isolated xanthones 1–12 and the positive control (AZT) were also evaluated for their cytotoxic activities against C8166 cells (CC50) on the basis of the MTT method. […]
(§1) Anti-HIV-1 activity bioassays
Cytotoxicity against C8166 cells (CC50) was assessed using the MTT method, and anti-HIV-1 activity was evaluated by the inhibition assay for the cytopathic effects of HIV-1 (EC50). Briefly, cells were seeded on a microtiter plate in the absence or presence of various concentrations of compounds in triplicate and incubated at 37 °C in a humid atmosphere of 5% CO2 for three days.
20.0 μL MTT reagent (5.0 mg/mL in PBS) was added to each well, then incubated at 37 °C for 4 h, 50% DMF-20% SDS (100.0 μL) was added. After the formazan was dissolved completely, the plates were read on a Bio-Tek ELx 800 ELISA reader at 595 nm/630 nm (A595/630). The cytotoxic concentration that caused the reduction of viable cells by 50% (CC50) was calculated from dose–response curve. In 100.0 μL various concentrations of compounds, C8166 cells (4×10^5/mL) were infected with virus (HIV-1IIIB) at a multiplicity of infection (M. O. I) of 0.06. The final volume per well was 200.0 μL. Control assays were performed without the testing compounds in HIV-1IIIB infected and uninfected cultures. AZT (3′-azido-3′-deoxythymidine) was used as a positive control. After three days of culture, the cytopathic effect (CPE) was measured by counting the number of syncytia (multinucleated giant cell). Percentage inhibition of syncytia formation was calculated and 50% effective concentration (EC50) was calculated. The therapeutic index (TI) was calculated from the ratio of CC50/EC50.

[2] = MTT cytotoxicity assay against C8166 cells; format: cell-based; details: human
Protocol: as §1
50% DMF-20% SDS (100.0 μL) was added. After the formazan was dissolved completely, the
volume per well was 200.0 μL. Control assays were performed without the testing compounds in
HIV-1IIIB infected and uninfected cultures. […]

[3] = C8166 cells, C8166 cell line, MTT, three days, read-out: CC50 (50% cytotoxic concentration)

| SMILES | IC50 [1] | TI (therapeutic index) = CC50/EC50 (HIV-1IIIB) | EC50 (HIV-1IIIB) | CC50 at 3 days [2, 3] | CC50 at 3 days [2] |
| --- | --- | --- | --- | --- | --- |
| CC1(C)c2c(cc(O)c3c(=O)c4ccc(O)c(O)c4oc23)O[C@H]1CO [Compound 6, cochinchinone P] | 8.35 ± 0.15 µM | >64.94 | 3.08 µM | > 200 µM | – |
| CC(C)=CCC/C(C)=C/Cc1c(O)c(CC=C(C)C)c(O)c2c(=O)c3c(O)ccc(O)c3oc12 [Compound 5, 1,3,5,8-tetrahydroxy-2-(3-methybut-2-enyl)-4-(3,7-dimethylocta-2,6-dienyl) xanthone] | 6.47 ± 0.1 µM | >79.05 | 2.53 µM | > 200 µM | – |
| Cc1cn([C@H]2C[C@H](N=[N+]=[N-])[C@@H](CO)O2)c(=O)[nH]c1=O [AZT, 3′-azido-3′-deoxythymidine, reference compound] | – | 193,371.51 | 0.0208 µM | – | 4020 µM |
| C[C@]12CCC(=O)C=C1CC[C@@H]1[C@@H]2[C@@H](O)C[C@@]2(C)[C@H]1CC[C@]2(O)C(=O)CO [Hydrocortisone, reference compound] | 4.08 ± 0.08 µM | – | – | – | – |
| COc1ccc2c(=O)c3c(OC)c(OC)c(O)cc3oc2c1O [Compound 3, Cratocochinone C] | 0.86 ± 0.05 µM | >105.82 | 1.89 µM | > 200 µM | – |
| C[C@@H]1Oc2cc(O)c3c(=O)c4cc(O)c(O)c(O)c4oc3c2C1(C)C [Compound 7, 2-deprenyl-7-hydroxy-rheediaxanthone] | 12.58 ± 0.12 µM | >48.08 | 4.16 µM | > 200 µM | – |
| C=C(C)C(O)CCC(C)=CCc1c(O)c(CC=C(C)C)c(O)c2c(=O)c3cc(O)ccc3oc12 (stereo not shown) [Compound 1, Cratocochinone A] | 1.29 ± 0.06 µM | >909.09 | 0.22 µM | > 200 µM | – |
| COc1ccc2c(=O)c3cc(O)c(OC)c(O)c3oc2c1OC [Compound 4, Cratocochinone D] | 9.42 ± 0.13 µM | >49.14 | 4.07 µM | > 200 µM | – |
| COc1cc2c(c3oc4c5c(ccc4c(=O)c13)OCO5)C=CC(C)(C)O2 [Compound 8, musaxanthone] | 4.16 ± 0.08 µM | >22.45 | 8.91 µM | > 200 µM | – |
| COc1ccc2c(=O)c3c(O)cc4c(c3oc2c1O)C(C)(C)C(CO)O4 (stereo not shown) [Compound 2, Cratocochinone B] | 2.17 ± 0.09 µM | >294.12 | 0.68 µM | > 200 µM | – |
| COc1cc2oc3c(O)ccc(OC)c3c(=O)c2c(O)c1OC [Compound 11, 1,5-dihydroxy-2,3,8-trimethoxy-9H-xanthen-9-one] | 3.16 ± 0.09 µM | >17.81 | 11.2 µM | > 200 µM | – |
| COc1c(O)cc2oc3cc(O)c(OC)c(OC)c3c(=O)c2c1O [Compound 12, 1,3,6-trihydroxy-2,7,8-trimethoxy-9H-xanthen-9-one] | 6.21 ± 0.08 µM | >31.50 | 6.35 µM | > 200 µM | – |
| COc1c(O)cc2oc3ccc(O)c(OC)c3c(=O)c2c1OC [Compound 9, 3,7-dihydroxy-1,2,8-trimethoxy-9H-xanthen-9-one] | 18.4 ± 0.21 µM | >37.59 | 5.32 µM | > 200 µM | – |
| COc1cc(O)c2c(=O)c3c(OC)c(OC)c(O)cc3oc2c1 [Compound 10, 3,8-dihydroxy-1,2,6-trimethoxy-9H-xanthen-9-one] | 7.47 ± 0.11 µM | >74.91 | 2.67 µM | > 200 µM | – |
